Measurements reported in article PMC12251151, “Understanding Anti-Obesity Potential of Four Porphyrin Compounds by Investigating Pancreatic Lipase Inhibition” (Molecules, 2025).

Key:
[1] = target: T1, pancreatic lipase (PL) (Sus scrofa, UniProt P00591); assay: In vitro stability (temperature and acid-base pre-treatment, then PL inhibition); assay type: physicochemical, porcine; conditions: 20 min treatment with buffers pH 2.0-10.0
T1 construct: lipase (porcine pancreas); purchased Shanghai Yuanye Co., Ltd., Shanghai, China; host or cells: porcine pancreas
T1 sequence (P00591 1-450): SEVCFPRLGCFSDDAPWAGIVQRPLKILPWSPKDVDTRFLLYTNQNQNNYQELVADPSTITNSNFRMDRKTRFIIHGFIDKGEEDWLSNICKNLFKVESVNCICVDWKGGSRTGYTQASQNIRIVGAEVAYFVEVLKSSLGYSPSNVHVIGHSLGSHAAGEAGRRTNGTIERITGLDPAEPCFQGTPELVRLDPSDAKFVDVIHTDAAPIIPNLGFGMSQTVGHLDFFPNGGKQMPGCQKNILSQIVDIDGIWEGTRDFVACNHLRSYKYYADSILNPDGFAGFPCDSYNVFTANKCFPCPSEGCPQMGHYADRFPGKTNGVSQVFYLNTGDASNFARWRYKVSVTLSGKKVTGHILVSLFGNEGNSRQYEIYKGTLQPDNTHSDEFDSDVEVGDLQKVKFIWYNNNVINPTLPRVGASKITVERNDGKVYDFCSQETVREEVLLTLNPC
Description: Temperature stability study. Sample pre-treatment: 1000 μL samples were bathed in water at different temperatures (30, 40, 50, 60, 70, 80, 90, 100 °C) for 20 min, and cooled rapidly.
Acid-base stability study. Sample pre-treatment: 1000 μL samples were treated with buffers of different pH (2.0, 3.0, 4.0, 5.0, 6.0, 7.0, 8.0, 9.0, and 10.0) for 20 min, and then the pH was adjusted back to 6.9–7.3.
PL inhibition experiments were the same as Section 3.2.1. A total of 200 μL pre-treated four porphyrin compounds, 500 μL of 4-nitrophenyl laurate (0.80 mg/mL), 400 μL of Tris-HCl buffer (pH 8.2, 0.1 mol/L), and 300 μL of pancreatic lipase (5 mg/mL) were reacted in an incubator at 37 °C for 2 h. The reaction solution was centrifuged at 12,000 rpm for 5 min, and 200 μL of the supernatant was added to a 96-well plate. The absorbance at 420 nm was measured. The temperature stability range was determined by comparing the inhibition rate of the samples treated at different temperatures. The range of acid-base stability was determined by comparing the changes in inhibition rate.

[2] = target: T1, pancreatic lipase (PL); assay: FT-IR spectroscopy secondary structure analysis of PL-porphyrin complex; set-up: species or system porcine; conditions: PL:porphyrin molar ratio 1:2; for β-Antiparallel of PL in complex: PL alone 7.78 ± 0.02; for Random Coil of PL in complex: PL alone 16.30 ± 0.04; for β-Turn of PL in complex: PL alone 23.12 ± 0.03; for α-Helix of PL in complex: PL alone 25.48 ± 0.06; for β-Sheet of PL in complex: PL alone 27.31 ± 0.06
Text: The effects of four porphyrin compounds on the secondary structure of PL were further studied by FT-IR spectroscopy. The amide I band (1700–1600 cm^−1, mainly C=O stretching) and the amide II band (1600–1500 cm^−1, mainly C-N stretching) are important spectral bands for studying the secondary structure of proteins. Because the regions of amide I band located at 1649–1660, 1615–1637, 1661–1680, 1638–1648, and 1681–1692 cm^−1 after curve fitting represent α-helix, β-sheet, β-turn, random coil and β-antiparallel, respectively, and the signal intensity is high, it is more widely evaluated than the amide II band.
The pancreatic lipase-porphyrin compound solution with a molar ratio of 1:2 was placed in a freeze-centrifugal concentrator Auto R1-plus (Beijing Jiaimu, Beijing, China). The dried solid samples were obtained and mixed with dried KBr, ground, and pressed into tablets, and then detected by Nicolet IS-50 (ThermoFisher, Waltham, MA, USA) instrument. The scanning range was 400–4000 cm^−1 and the resolution was 4 cm^−1. Peakfit V4.12 software was used to fit the amide I region (1600–1700 cm^−1) of pancreatic lipase.

| pH range in which PL inhibitory activity changed little (acid-base stability) [1] | β-Antiparallel of PL in complex [2] | Random Coil of PL in complex [2] | β-Turn of PL in complex [2] | α-Helix of PL in complex [2] | β-Sheet of PL in complex [2] | Compound |
| --- | --- | --- | --- | --- | --- | --- |
| 2.0~9.0 pH | 8.26 ± 0.02% | 24.25 ± 0.07% | 18.09 ± 0.04% | 12.81 ± 0.03% | 36.59 ± 0.07% | Nc1ccc(-c2c3nc(c(-c4ccc(N)cc4)c4ccc([nH]4)c(-c4ccc(N)cc4)c4nc(c(-c5ccc(N)cc5)c5ccc2[nH]5)C=C4)C=C3)cc1 [TAPP, 5,10,15,20-Tetrakis (4-aminophenyl) porphyrin] |
| 2.0~10.0 pH | 4.82 ± 0.01% | 24.70 ± 0.06% | 10.43 ± 0.03% | 22.26 ± 0.08% | 37.79 ± 0.12% | O=C(O)c1ccc(-c2c3nc(c(-c4ccc(C(=O)O)cc4)c4ccc([nH]4)c(-c4ccc(C(=O)O)cc4)c4nc(c(-c5ccc(C(=O)O)cc5)c5ccc2[nH]5)C=C4)C=C3)cc1 [TCPP, meso-Tetra (4-carboxyphenyl) porphine] |
| 2.0~10.0 pH | 8.32 ± 0.01% | 20.38 ± 0.02% | 19.70 ± 0.04% | 13.96 ± 0.04% | 37.64 ± 0.05% | Oc1ccc(-c2c3nc(c(-c4ccc(O)cc4)c4ccc([nH]4)c(-c4ccc(O)cc4)c4nc(c(-c5ccc(O)cc5)c5ccc2[nH]5)C=C4)C=C3)cc1 [THPP, 5,10,15,20-Tetrakis (4-hydroxyphenyl) porphyrin] |
| 2.0~10.0 pH | 0.87 ± 0.01% | 23.40 ± 0.06% | 13.51 ± 0.03% | 15.78 ± 0.05% | 46.44 ± 0.13% | O=C([O-])c1ccc(C2=C3C=CC(=N3)C(c3ccc(C(=O)[O-])cc3)=C3C=CC(=N3)C(=c3ccc(=C([O-])[O-])cc3)c3ccc([n-]3)C(c3ccc(C(=O)[O-])cc3)=C3C=CC2=N3)cc1.[67Cu+2].[H+].[H+].[H+].[H+] [Cu-TCPP, Cu (II) meso-Tetra (4-carboxyphenyl) porphine] |
